Reference: US9193731B2, “Antimicrobial compounds and methods of making and using the same” (Melinta Therapeutics, Inc., priority 2009, dated 2015)

System: Escherichia coli strain ATCC25922
Test: standard microdilution assay to determine minimum inhibitory concentrations (MICs)
Format: cell-based
Conditions: Escherichia coli strain ATCC25922, microdilution
Experimental: Minimum inhibitory concentrations (MICs) are determined by the microdilution method, typically in a final volume of 100 microliters, according to protocols outlined by The Clinical and Laboratory Standards Institute [CLSI; formerly the National Committee for Clinical Laboratory Standards (NCCLS)]. See CLSI: Methods for dilution antimicrobial susceptibility tests for bacteria that grow aerobically; approved standard-fifth edition. Wayne, Pa.: NCCLS; 2000. The assays can be also be performed in microtiter trays according to conventional methodologies as published by the CLSI. See CLSI. Methods for Dilution Antimicrobial Susceptibility Tests for Bacteria That Grow Aerobically; Approved Standard—Seventh Edition. CLSI Document M7-A7 [ISBN 1-56238-587-9] CLSI, 940 West Valley Road, Suite 1400, Wayne Pa. 19087-1898 USA, 2006).
The compounds of the present invention were tested for antimicrobial activity. The compounds were run against Escherichia coli strain ATCC25922 using a standard microdilution assay to determine minimum inhibitory concentrations (MICs). […] A “N/A” means that data is unavailable. It will be recognized by one skilled in the art that the compounds can be assessed against other bacterial organisms and that the presentation of data for activity against Escherichia coli is illustrative and in no way is intended to limit the scope of the present invention. The compounds of the present invention can be assayed against a range of other microorganisms depending upon the performance activity desired to be gathered. Furthermore, the “+”, “−”, and “N/A” representation and the selection of a cutoff value of 16 micrograms/ml is also illustrative and in no way is intended to limit the scope of the present invention.

SMILES	E. coli ATCC25922 MIC
N=C(N)NCCCNC(=O)c1ccc(-n2cc3cc(-c4ccc(S(=O)(=O)CCCNC5CCCOC5)cc4)[nH]c3nc2=O)cc1 (centres unmarked) [Compound 1284]	− (a “−” indicates that the compound has an MIC value greater than 16 micrograms/ml)
CSCc1cc(OCC(F)CN)cc(-c2cc3cn(-c4ccc(CNCCCNC(=N)N)cc4)c(=O)nc3[nH]2)c1 (centres unmarked) [Compound 2049a]	+ (a “+” indicates that the compound has an MIC value of 16 micrograms/ml or less)
N=C(N)NCCCNCc1ccc(-c2cn3cc(CCc4cccc(OC(F)(F)F)c4)[nH]c3nc2=O)cc1 [Compound 975]	− (a “−” indicates that the compound has an MIC value greater than 16 micrograms/ml)
CS(=O)(=O)NCc1cc(CCCCN)cc(-c2cc3cn(-c4ccc(CNCCCNC(=N)N)cc4)c(=O)nc3[nH]2)c1 [Compound 2090a]	+ (a “+” indicates that the compound has an MIC value of 16 micrograms/ml or less)
NCc1ccc(-n2cc3cc(-c4ccc(S(=O)(=O)N(Cc5ccc6nonc6c5)C5CCNCC5)cc4)[nH]c3nc2=O)cc1 [Compound 961]	− (a “−” indicates that the compound has an MIC value greater than 16 micrograms/ml)
N=C(N)NCCCNCc1ccc(-n2cc3cc(-c4ccc(S(=O)(=O)N(CCOc5ccc(F)cc5)C5CCNCC5)cc4)[nH]c3nc2=O)cc1 [Compound 770]	+ (a “+” indicates that the compound has an MIC value of 16 micrograms/ml or less)
NCCCNC(=O)c1ccc(-n2cc3cc(-c4ccc(S(=O)(=O)NC5CCNCC5)cc4)[nH]c3nc2=O)cc1OCC1CCNCC1 [Compound 1241]	− (a “−” indicates that the compound has an MIC value greater than 16 micrograms/ml)
N=C(N)NCCCNCc1ccc(-n2cc3cc(-c4ccc(S(=O)(=O)N(Cc5cc(-c6ccc(Cl)cc6)on5)C5CCNCC5)cc4)[nH]c3nc2=O)cc1 [Compound 803]	+ (a “+” indicates that the compound has an MIC value of 16 micrograms/ml or less)
N=C(N)N[C@@H]1CCCN(Cc2ccc(-n3cc4cc(-c5ccc(S(=O)(=O)N(Cc6ccncc6)C6CCNCC6)cc5)[nH]c4nc3=O)cc2)C1 [Compound 1177]	− (a “−” indicates that the compound has an MIC value greater than 16 micrograms/ml)
N=C(N)NCCCNCc1ccc(-n2cc3cc(-c4cc(CCN)cc(CCCCN)c4)[nH]c3nc2=O)cc1 [Compound 2062a]	+ (a “+” indicates that the compound has an MIC value of 16 micrograms/ml or less)
N=C(N)NCCCNCc1ccc(-n2cc3cc(-c4cccc(OCC(CN)OCC(F)(F)F)c4)[nH]c3nc2=O)cc1 (centres unmarked) [Compound 1455]	+ (a “+” indicates that the compound has an MIC value of 16 micrograms/ml or less)
N=C(N)NCCCNCc1ccc(-n2cc3cc(-c4cc(C(=O)N5CCC(C(N)=O)CC5)cc(N5CCNCC5)c4)[nH]c3nc2=O)cc1 [Compound 911]	− (a “−” indicates that the compound has an MIC value greater than 16 micrograms/ml)
N=C(N)NCCCNCc1ccc(-n2cc3cc(-c4ccc(C(=O)NC5CNC5)cc4)[nH]c3nc2=O)cc1 [Compound 1412]	+ (a “+” indicates that the compound has an MIC value of 16 micrograms/ml or less)
CN(Cc1cccnc1)C(=O)c1cc(-c2cc3cn(-c4ccc(CNCCCNC(=N)N)cc4)c(=O)nc3[nH]2)cc(N2CCNCC2)c1 [Compound 951]	− (a “−” indicates that the compound has an MIC value greater than 16 micrograms/ml)
N=C(N)NCCNC(=O)c1ccc(-n2cc3cc(-c4ccc(S(=O)(=O)NC5CCNCC5)cc4)[nH]c3nc2=O)cc1 [Compound 1048]	+ (a “+” indicates that the compound has an MIC value of 16 micrograms/ml or less)
N=C(N)NOCCNCc1ccc(-n2cc3cc(-c4ccc(S(=O)(=O)NC5CCNCC5)cc4)[nH]c3nc2=O)cc1 [Compound 1102]	+ (a “+” indicates that the compound has an MIC value of 16 micrograms/ml or less)
CC1CN(C(=O)c2ccc(-c3cn4cc(-c5ccc(CNCCCNC(=N)N)cc5)c(=O)nc4[nH]3)cc2)CCN1 (centres unmarked) [Compound 822]	+ (a “+” indicates that the compound has an MIC value of 16 micrograms/ml or less)
N=C(N)NCCCNCc1ccc(-n2cc3cc(-c4cc(C(F)(F)F)cc(S(=O)(=O)NCCN)c4)[nH]c3nc2=O)cc1 [Compound 2067a]	+ (a “+” indicates that the compound has an MIC value of 16 micrograms/ml or less)
CC(CN)CN1CCC(c2cc3cn(-c4ccc(CNCCCN)cc4)c(=O)nc3[nH]2)C1 (centres unmarked) [Compound 2041a]	+ (a “+” indicates that the compound has an MIC value of 16 micrograms/ml or less)
N=C(N)NCCCNCc1ccc(-n2cc3cc(-c4ccc(S(=O)(=O)N(CC5CN(Cc6ccccc6)CCO5)C5CCNCC5)cc4)[nH]c3nc2=O)cc1 (centres unmarked) [Compound 988]	+ (a “+” indicates that the compound has an MIC value of 16 micrograms/ml or less)
N=C(N)NCCCNCc1ccc(-n2cc3cc(-c4cc(Br)cc(CCCCN)c4)[nH]c3nc2=O)cc1 [Compound 2079a]	+ (a “+” indicates that the compound has an MIC value of 16 micrograms/ml or less)
N=C(N)NCCCNCc1ccc(-n2cc3cc(C4CCN(CCCN)C4)[nH]c3nc2=O)cc1 (centres unmarked) [Compound 1448]	+ (a “+” indicates that the compound has an MIC value of 16 micrograms/ml or less)
N=C(N)NCCCNCc1ccc(-n2cc3cc(-c4cc(C(=O)N5Cc6ccccc6C5)cc(N5CCNCC5)c4)[nH]c3nc2=O)cc1 [Compound 981]	+ (a “+” indicates that the compound has an MIC value of 16 micrograms/ml or less)

Same assay, conditions: Escherichia coli, ATCC25922, Escherichia coli strain ATCC25922, microdilution; read-out: E. coli ATCC25922 MIC

SMILES	MIC [µg/mL]
N=C(N)NCCCNCc1ccc(-n2cc3cc(-c4ccc(C(=O)NC5CCNCC5)cc4)[nH]c3nc2=O)cc1 [Compound 234]	< 16
NCc1ccc(-n2cc3cc(-c4ccccc4OCCO)[nH]c3nc2=O)cc1 [Compound 1088]	> 16
N=C(N)NCCCNCc1ccc(-n2cc3cc(-c4cccc(OCCCO)c4)[nH]c3nc2=O)cc1 [Compound 1110]	> 16
NCc1ccc(-n2cc3cc(-c4cccc(OCCCO)c4)[nH]c3nc2=O)cc1 [Compound 1099]	> 16
N=C(N)NCCCOCc1ccc(-c2cn3cc(-c4ccc(C(=O)N5CCNCC5)cc4)[nH]c3nc2=O)cc1 [Compound 932]	> 16
Cn1cc2cc(-c3ccc(F)cc3)[nH]c2nc1=O [Compound 580]	> 16
NCc1ccc(-n2cc3cc(-c4ccccc4OCCCO)[nH]c3nc2=O)cc1 [Compound 1105]	> 16
NCCCNCc1ccc(-n2cc3cc(-c4ccc(S(=O)(=O)N(Cc5ccc(Cl)c(Cl)c5)C5CCNCC5)cc4)[nH]c3nc2=O)cc1 [Compound 697]	< 16
N=C(N)NCCCNCc1ccc(-n2cc3cc(-c4cccc(CN5CCNCC5)c4)[nH]c3nc2=O)cc1 [Compound 1233]	< 16
NCc1ccc(-n2cc3cc(-c4cccc(S(=O)(=O)N(CCc5ccc(O)cc5)C5CCNCC5)c4)[nH]c3nc2=O)cc1 [Compound 1182]	> 16
CN(Cc1ccccc1)Cc1cc2cn(-c3ccc(CNCCCNC(=N)N)cc3)c(=O)nc2[nH]1 [Compound 906]	> 16
Cc1cc(F)cc(CN(C2CCNCC2)S(=O)(=O)c2ccc(-c3cc4cn(-c5ccc(CN(CCCN)CCCN)cc5)c(=O)nc4[nH]3)cc2)c1 [Compound 237]	< 16
NCCCNCc1ccc(-c2cn3nc(NC(=O)c4ccc(F)cc4)[nH]c3nc2=O)cc1 [Compound 709]	> 16
NCc1ccc(-n2cc3cc(-c4ccc(S(=O)(=O)N(CCCC5CCCO5)C5CCNCC5)cc4)[nH]c3nc2=O)cc1 (centres unmarked) [Compound 1066]	> 16
NCc1ccc(-n2cc3cc(-c4cc(F)c(C(=O)NC5CCNCC5)c(F)c4)[nH]c3nc2=O)cc1 [Compound 258]	< 16
O=c1nc2[nH]c(-c3ccc(S(=O)(=O)NC4CCNCC4)cc3)cc2cn1-c1cccc(OCC2CCNCC2)c1 [Compound 1141]	> 16
N=C(N)NCCCN(CCCN)Cc1ccc(-n2cc3cc(-c4ccc(S(=O)(=O)NC5CN6CCC5CC6)cc4)[nH]c3nc2=O)cc1 (centres unmarked) [Compound 219]	< 16
N=C(N)NCCCNCc1ccc(-n2cc3cc(-c4ccc(S(=O)(=O)[C@H]5CCNC5)cc4)[nH]c3nc2=O)cc1 [Compound 1154]	< 16
CNCc1ccc(-n2cc3cc(-c4ccc(S(=O)(=O)N(CCCc5cccc(OC)c5)C5CCNCC5)cc4)[nH]c3nc2=O)cc1 [Compound 1034]	> 16
NCCOc1cccc(-c2cc3cn(-c4ccc(CN)cc4)c(=O)nc3[nH]2)c1 [Compound 1144]	> 16
N=C(N)NCCCN(CCCN)Cc1ccc(-c2cn3cc(-c4ccc(Br)cc4)[nH]c3nc2=O)cc1 [Compound 640]	< 16
CNCCOc1ccccc1-c1cc2cn(-c3ccc(CN)cc3)c(=O)nc2[nH]1 [Compound 1129]	> 16
CO[C@H](CN)COc1cccc(-c2cc3cn(-c4ccc(CN)cc4)c(=O)nc3[nH]2)c1 [Compound 1428]	> 16
N=C(N)NCCCNCc1ccc(-n2cc3cc(-c4cc(CCCCN)cc(OC(F)(F)F)c4)[nH]c3nc2=O)cc1 [Compound 2009a]	< 16
